Results: patent US7378375B1, “Substituted pyridine herbicides” (Syngenta Crop Protection, Inc., priority 2000, dated 2008)

Columns and labels:
[1] = tested on: Monocotyledonous and dicotyledonous test plants; assay: Herbicidal action before emergence of the plants (pre-emergence action), greenhouse pot test, 9-level rating after 4 weeks; assay type: in vivo; set-up: key: 9-level scale: 1 = complete damage, 9 = no effect; conditions: 250 g/ha, rated after 4 weeks, 9-level scale
How it was run: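 Compounds applied pre-emergence as a spray (500 l water/ha) of aqueous suspension or emulsion onto soil immediately after sowing mono- and dicot species in pots. Greenhouse-grown; damage rated after 4 weeks on a 9-level scale (1=complete damage, 9=no effect).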

[2] = tested on: Monocotyledonous and dicotyledonous test plants; assay: Post-emergence herbicidal action, greenhouse pot test, sprayed at the 2- to 3-leaf stage, 9-level rating after 2 to 3 weeks; assay type: in vivo; set-up: key: 9-level scale: 1 = complete damage, 9 = no effect; conditions: 250 g/ha, rated after 2 to 3 weeks, 9-level scale
How it was run: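 Plants grown in standard soil in pots; test substances sprayed at the 2- to 3-leaf stage at optimum dosage (500 l water/ha) as aqueous suspension or emulsion from formulated concentrates. Plants then kept in the greenhouse under optimum conditions; rated after 2 to 3 weeks on a 9-level scale (1=complete damage, 9=no effect).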

CC#CCOCc1nc(C(F)(F)F)ccc1C(=O)C1=C(O)C2CCC(C2)C1=O (stereo not drawn) [A20-B52]
Pre-emergence action rating, Abutilon [1]: 3 | Pre-emergence action rating, Amaranthus [1]: 3 | Pre-emergence action rating, Digitaria [1]: 1 | Pre-emergence action rating, Echino. [1]: 1 | Pre-emergence action rating, Panicum [1]: 1 | Post-emergence action rating, Abutilon [2]: 2 | Post-emergence action rating, Amaranth [2]: 2 | Post-emergence action rating, Chenop. [2]: 1 | Post-emergence action rating, Digitaria [2]: 2 | Post-emergence action rating, Echino. [2]: 2 | Post-emergence action rating, Ipopur. [2]: 2 | Post-emergence action rating, Panicum [2]: 1 | Post-emergence action rating, Xanth. [2]: 2

CC#CCOCc1nc(C(F)(F)F)ccc1C(=O)c1cnn(C)c1O [A20-C5]
Pre-emergence action rating, Abutilon [1]: 1 | Pre-emergence action rating, Amaranthus [1]: 1 | Pre-emergence action rating, Chenop. [1]: 1 | Pre-emergence action rating, Digitaria [1]: 2 | Pre-emergence action rating, Echino. [1]: 2 | Pre-emergence action rating, Panicum [1]: 1 | Post-emergence action rating, Abutilon [2]: 3 | Post-emergence action rating, Amaranth [2]: 2 | Post-emergence action rating, Chenop. [2]: 1 | Post-emergence action rating, Digitaria [2]: 3 | Post-emergence action rating, Echino. [2]: 4 | Post-emergence action rating, Ipopur. [2]: 3 | Post-emergence action rating, Panicum [2]: 2 | Post-emergence action rating, Xanth. [2]: 3

O=C(C1=C(O)C2CCC(C2)C1=O)c1ccc(C(F)(F)F)nc1COC1COC1 (stereo not drawn) [A24-B52]
Pre-emergence action rating, Abutilon [1]: 1 | Pre-emergence action rating, Amaranthus [1]: 1 | Pre-emergence action rating, Chenop. [1]: 1 | Pre-emergence action rating, Digitaria [1]: 1 | Pre-emergence action rating, Echino. [1]: 1 | Pre-emergence action rating, Panicum [1]: 1 | Post-emergence action rating, Abutilon [2]: 2 | Post-emergence action rating, Amaranth [2]: 2 | Post-emergence action rating, Chenop. [2]: 1 | Post-emergence action rating, Digitaria [2]: 2 | Post-emergence action rating, Echino. [2]: 2 | Post-emergence action rating, Ipopur. [2]: 2 | Post-emergence action rating, Panicum [2]: 2 | Post-emergence action rating, Xanth. [2]: 2

O=C(C1=C(O)C2CCC(C2)C1=O)c1ccc(C(F)(F)F)nc1COC1CCCCC1 (stereo not drawn) [A27-B52]
Pre-emergence action rating, Abutilon [1]: 4 | Pre-emergence action rating, Amaranthus [1]: 1 | Pre-emergence action rating, Chenop. [1]: 3 | Pre-emergence action rating, Digitaria [1]: 2 | Pre-emergence action rating, Echino. [1]: 3 | Pre-emergence action rating, Panicum [1]: 1 | Post-emergence action rating, Abutilon [2]: 3 | Post-emergence action rating, Amaranth [2]: 2 | Post-emergence action rating, Chenop. [2]: 5 | Post-emergence action rating, Digitaria [2]: 2 | Post-emergence action rating, Echino. [2]: 2 | Post-emergence action rating, Ipopur. [2]: 4 | Post-emergence action rating, Panicum [2]: 1 | Post-emergence action rating, Xanth. [2]: 2

CCN(CC)CC.O=C(C1=C(O)C2CCC(C2)C1=O)c1ccc(C(F)(F)F)nc1COC1CCCCO1 (stereo not drawn) [A28-B52 (Et3NH+)]
Pre-emergence action rating, Abutilon [1]: 3 | Pre-emergence action rating, Amaranthus [1]: 1 | Pre-emergence action rating, Digitaria [1]: 2 | Pre-emergence action rating, Echino. [1]: 2 | Pre-emergence action rating, Panicum [1]: 1 | Post-emergence action rating, Abutilon [2]: 2 | Post-emergence action rating, Amaranth [2]: 2 | Post-emergence action rating, Chenop. [2]: 1 | Post-emergence action rating, Digitaria [2]: 2 | Post-emergence action rating, Echino. [2]: 2 | Post-emergence action rating, Ipopur. [2]: 2 | Post-emergence action rating, Panicum [2]: 1 | Post-emergence action rating, Xanth. [2]: 3

O=C(C1=C(O)C2CCC(C2)C1=O)c1ccc(C(F)(F)F)nc1COC1CCCCO1 (stereo not drawn) [A28-B52]
Pre-emergence action rating, Abutilon [1]: 2 | Pre-emergence action rating, Amaranthus [1]: 3 | Pre-emergence action rating, Digitaria [1]: 2 | Pre-emergence action rating, Echino. [1]: 2 | Pre-emergence action rating, Panicum [1]: 1 | Post-emergence action rating, Abutilon [2]: 2 | Post-emergence action rating, Amaranth [2]: 1 | Post-emergence action rating, Chenop. [2]: 1 | Post-emergence action rating, Digitaria [2]: 2 | Post-emergence action rating, Echino. [2]: 2 | Post-emergence action rating, Ipopur. [2]: 4 | Post-emergence action rating, Panicum [2]: 1 | Post-emergence action rating, Xanth. [2]: 3

O=C(C1=C(O)C2CCC(C2)C1=O)c1ccc(C(F)(F)F)nc1COCC1CC1 (stereo not drawn) [A56-B52]
Pre-emergence action rating, Abutilon [1]: 3 | Pre-emergence action rating, Amaranthus [1]: 1 | Pre-emergence action rating, Chenop. [1]: 1 | Pre-emergence action rating, Digitaria [1]: 2 | Pre-emergence action rating, Echino. [1]: 1 | Pre-emergence action rating, Panicum [1]: 1 | Post-emergence action rating, Abutilon [2]: 2 | Post-emergence action rating, Amaranth [2]: 1 | Post-emergence action rating, Chenop. [2]: 1 | Post-emergence action rating, Digitaria [2]: 2 | Post-emergence action rating, Echino. [2]: 2 | Post-emergence action rating, Ipopur. [2]: 2 | Post-emergence action rating, Panicum [2]: 1 | Post-emergence action rating, Xanth. [2]: 2

O=C(C1=C(O)C2CCC(C2)C1=O)c1ccc(C(F)(F)F)nc1COCC1CO1 (stereo not drawn) [A57-B52 (H5), 4-Hydroxy-3-(2-oxiranylmethoxymethyl-6-trifluoromethylpyridine-3-carbonyl)-bicyclo[3.2.1]oct-3-en-2-one]
Pre-emergence action rating, Abutilon [1]: 1 | Pre-emergence action rating, Amaranthus [1]: 1 | Pre-emergence action rating, Chenop. [1]: 1 | Pre-emergence action rating, Digitaria [1]: 1 | Pre-emergence action rating, Echino. [1]: 1 | Pre-emergence action rating, Panicum [1]: 1 | Post-emergence action rating, Abutilon [2]: 1 | Post-emergence action rating, Amaranth [2]: 1 | Post-emergence action rating, Chenop. [2]: 1 | Post-emergence action rating, Digitaria [2]: 1 | Post-emergence action rating, Echino. [2]: 2 | Post-emergence action rating, Ipopur. [2]: 2 | Post-emergence action rating, Panicum [2]: 1 | Post-emergence action rating, Xanth. [2]: 2

O=C(C1=C(O)C2CCC(C2)C1=O)c1ccc(C(F)(F)F)nc1COCC1CCCCO1 (stereo not drawn) [A63-B52]
Pre-emergence action rating, Abutilon [1]: 5 | Pre-emergence action rating, Amaranthus [1]: 3 | Pre-emergence action rating, Digitaria [1]: 3 | Pre-emergence action rating, Echino. [1]: 1 | Pre-emergence action rating, Panicum [1]: 2 | Post-emergence action rating, Abutilon [2]: 2 | Post-emergence action rating, Amaranth [2]: 2 | Post-emergence action rating, Chenop. [2]: 2 | Post-emergence action rating, Digitaria [2]: 2 | Post-emergence action rating, Echino. [2]: 2 | Post-emergence action rating, Ipopur. [2]: 2 | Post-emergence action rating, Panicum [2]: 1 | Post-emergence action rating, Xanth. [2]: 2

O=C(C1=C(O)C2CCC(C2)C1=O)c1ccc(C(F)(F)F)nc1COCc1ccccc1 (stereo not drawn) [A67-B52]
Pre-emergence action rating, Abutilon [1]: 3 | Pre-emergence action rating, Amaranthus [1]: 2 | Pre-emergence action rating, Chenop. [1]: 1 | Pre-emergence action rating, Digitaria [1]: 2 | Pre-emergence action rating, Echino. [1]: 2 | Pre-emergence action rating, Panicum [1]: 1 | Post-emergence action rating, Abutilon [2]: 2 | Post-emergence action rating, Amaranth [2]: 2 | Post-emergence action rating, Chenop. [2]: 1 | Post-emergence action rating, Digitaria [2]: 2 | Post-emergence action rating, Echino. [2]: 2 | Post-emergence action rating, Ipopur. [2]: 3 | Post-emergence action rating, Panicum [2]: 2 | Post-emergence action rating, Xanth. [2]: 2

COCCOCc1nc(C(F)(F)Cl)ccc1C(=O)C1=C(O)C2CCC(C2)C1=O (stereo not drawn) [A556-B52]
Pre-emergence action rating, Abutilon [1]: 1 | Pre-emergence action rating, Amaranthus [1]: 2 | Pre-emergence action rating, Chenop. [1]: 1 | Pre-emergence action rating, Digitaria [1]: 1 | Pre-emergence action rating, Echino. [1]: 1 | Pre-emergence action rating, Panicum [1]: 1 | Post-emergence action rating, Abutilon [2]: 1 | Post-emergence action rating, Amaranth [2]: 2 | Post-emergence action rating, Chenop. [2]: 1 | Post-emergence action rating, Digitaria [2]: 2 | Post-emergence action rating, Echino. [2]: 2 | Post-emergence action rating, Ipopur. [2]: 2 | Post-emergence action rating, Panicum [2]: 1 | Post-emergence action rating, Xanth. [2]: 2
